Patent publication US9169241B2, “Quinolinyloxyphenylsulfonamides” (Max-Planck-Gesellschaft Zur Forderung der Wissenschaften …, priority 2009, dated 2015)

Experiments:
Type in all cases: cell-based
SF763 = assay: Apoptosis assay (Cellomics, nucleus condensation); details: Table III, read-out: Apoptosis induction in SF763
Outline: (§1)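 Cells seeded at 5000 per well were stained live with Hoechst 33342, and nuclear condensation was quantified per nucleus by automated fluorescence imaging alongside cell counts. Compound was tested at 12.5, 6.25, 3.125, 1.56, 0.78 and 0.39 μM against a DMSO control, with reads at 24 h and 48 h.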

C8161 = assay: Apoptosis assay (Cellomics, nucleus condensation); details: Homo sapiens, Table III, read-out: Apoptosis induction in C8161
Outline: as §1

U138 = assay: Apoptosis assay (Cellomics, nucleus condensation); details: Table III, read-out: Apoptosis induction in U138
Outline: as §1

Hs578T = assay: Apoptosis assay (Cellomics, nucleus condensation); details: Homo sapiens, Hs-578T, Table III, read-out: Apoptosis induction in Hs578T
Outline: as §1

SF126 = assay: Apoptosis assay (Cellomics, nucleus condensation); details: Homo sapiens, SF-126, Table III, read-out: Apoptosis induction in SF126
Outline: as §1

U118 = assay: Apoptosis assay (Cellomics, nucleus condensation); details: Table III, read-out: Apoptosis induction in U118
Outline: as §1

[1] = target: T1, wild type AXL (wtAXL) receptor tyrosine kinase (Homo sapiens, UniProt P30530); assay: NIH-3T3-AXL cellular kinase assay (pY-AXL-ELISA); details: NIH-3T3-AXL (clone 22) cells, serum depleted, compounds 1 h; Table Ia
T1 construct: WtAXL cDNA was cloned into vector pLXSN(ESK) and transfected into Phoenix E packaging cells; expressed in transfected cells; host or cells: NIH3T3 N7 (mouse fibroblasts), retrovirally infected, clone 22
T1 sequence (P30530 26-894): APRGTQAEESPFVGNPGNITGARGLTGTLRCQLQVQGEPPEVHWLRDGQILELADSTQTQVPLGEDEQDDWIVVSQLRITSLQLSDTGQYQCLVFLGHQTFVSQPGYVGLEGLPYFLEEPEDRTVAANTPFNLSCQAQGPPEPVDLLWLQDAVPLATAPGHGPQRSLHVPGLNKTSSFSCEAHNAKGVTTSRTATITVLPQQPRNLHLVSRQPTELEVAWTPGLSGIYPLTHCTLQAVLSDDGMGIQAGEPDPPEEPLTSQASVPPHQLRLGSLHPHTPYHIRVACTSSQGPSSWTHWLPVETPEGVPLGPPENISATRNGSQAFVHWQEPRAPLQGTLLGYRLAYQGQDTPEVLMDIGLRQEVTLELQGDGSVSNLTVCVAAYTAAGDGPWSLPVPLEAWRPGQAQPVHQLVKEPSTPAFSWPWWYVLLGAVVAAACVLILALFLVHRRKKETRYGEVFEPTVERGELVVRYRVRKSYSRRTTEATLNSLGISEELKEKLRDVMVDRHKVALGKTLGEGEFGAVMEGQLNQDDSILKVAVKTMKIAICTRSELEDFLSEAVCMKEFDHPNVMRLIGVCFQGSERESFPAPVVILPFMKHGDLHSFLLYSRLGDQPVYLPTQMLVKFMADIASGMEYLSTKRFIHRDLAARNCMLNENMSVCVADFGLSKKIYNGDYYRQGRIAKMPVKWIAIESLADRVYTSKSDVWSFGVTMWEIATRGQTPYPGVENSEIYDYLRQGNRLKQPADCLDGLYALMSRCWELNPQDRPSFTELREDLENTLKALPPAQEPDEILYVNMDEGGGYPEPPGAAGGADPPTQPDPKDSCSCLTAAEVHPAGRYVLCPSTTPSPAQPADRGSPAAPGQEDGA
Outline: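 Phospho-AXL was quantified by ELISA in lysates (4G10-biotin, streptavidin-AP, AttoPhos, 430/560 nm read at 90 min). The cells were monoclonal NIH3T3 lines stably transduced with human wtAXL, exposed to serial compound dilutions for 1 h before lysis.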

Row | Compound | IC50 (SF763) [µM] | IC50 (C8161) [µM] | IC50 (U138) [µM] | IC50 (Hs578T) [µM] | IC50 (SF126) [µM] | IC50 (U118) [µM] | IC50 [1] [µM]
1 | COc1cc2c(Oc3ccc(NS(=O)(=O)c4ccccc4C(F)(F)F)cc3F)ccnc2cc1OCC(=O)N(C)C [Example 93, 2-{4-[2-Fluoro-4-(2-trifluoromethyl-benzenesulfonylamino)-phenoxy]-6-methoxy-quinolin-7-yloxy}-N,N-dimethyl-acetamide] | ≤ 12.5 | ≤ 12.5 | ≤ 12.5 | ≤ 12.5 | ≤ 12.5 | ≤ 12.5 | –
2 | COc1cc2c(Oc3ccc(NS(=O)(=O)c4ccc(F)c(C#N)c4)cc3F)ccnc2cc1OCCCN1CCCC(C)C1 (stereo not shown) [Example 72, 3-Cyano-4-fluoro-N-(3-fluoro-4-{6-methoxy-7-[3-(3-methyl-piperidin-1-yl)-propoxy]-quinolin-4-yloxy}-phenyl)-benzenesulfonamide] | ≤ 12.5 | ≤ 12.5 | 12.5 to 50 | ≤ 12.5 | 12.5 to 50 | ≤ 12.5 | –
3 | COc1cc2c(Oc3ccc(NS(=O)(=O)c4ccccc4OC(F)(F)F)cc3F)ccnc2cc1OCCCN1CCN(C)CC1 [Example 25, N-(3-Fluoro-4-{6-methoxy-7-[3-(4-methyl-piperazin-1-yl)-propoxy]-quinolin-4-yloxy}-phenyl)-2-trifluoromethoxy-benzenesulfonamide] | ≤ 12.5 | ≤ 12.5 | ≤ 12.5 | ≤ 12.5 | ≤ 12.5 | ≤ 12.5 | –
4 | COc1cc2c(Oc3ccc(NS(=O)(=O)c4cc(F)ccc4F)cc3F)ccnc2cc1OCCCN1CCN(C)CC1 [Example 12, 2,5-Difluoro-N-(3-fluoro-4-{6-methoxy-7-[3-(4-methyl-piperazin-1-yl)-propoxy]-quinolin-4-yloxy}-phenyl)-benzenesulfonamide] | – | 12.5 to 50 | – | – | – | – | < 0.5
5 | COc1cc2c(Oc3ccc(NS(=O)(=O)c4cccc(Oc5ccccc5)c4)cc3F)ccnc2cc1OCCCN1CCN(C)CC1 [Example 14, N-(3-Fluoro-4-{6-methoxy-7-[3-(4-methyl-piperazin-1-yl)-propoxy]-quinolin-4-yloxy}-phenyl)-3-phenoxy-benzenesulfonamide] | ≤ 12.5 | ≤ 12.5 | ≤ 12.5 | ≤ 12.5 | ≤ 12.5 | 12.5 to 50 | –
6 | COc1cc2c(Oc3ccc(NS(=O)(=O)c4ccccc4C(F)(F)F)cc3F)ccnc2cc1OCCCN1CCCCC1C (stereo not shown) [Example 99, N-(3-Fluoro-4-{6-methoxy-7-[3-(2-methyl-piperidin-1-yl)-propoxy]-quinolin-4-yloxy}-phenyl)-2-trifluoromethyl-benzenesulfonamide] | ≤ 12.5 | ≤ 12.5 | ≤ 12.5 | ≤ 12.5 | ≤ 12.5 | 12.5 to 50 | –
7 | COc1cc2c(Oc3ccc(NS(=O)(=O)c4ccccc4C(F)(F)F)cc3F)ccnc2cc1OCCCNC1CCOCC1 [Example 95, N-(3-Fluoro-4-{6-methoxy-7-[3-(tetrahydro-pyran-4-ylamino)-propoxy]-quinolin-4-yloxy}-phenyl)-2-trifluoromethyl-benzenesulfonamide] | ≤ 12.5 | ≤ 12.5 | ≤ 12.5 | ≤ 12.5 | ≤ 12.5 | ≤ 12.5 | –
8 | COc1cc2c(Oc3ccc(NS(=O)(=O)c4ccccc4Cl)cc3F)ccnc2cc1OCCCN1CCN(C)CC1 [Example 29, 2-Chloro-N-(3-fluoro-4-{6-methoxy-7-[3-(4-methyl-piperazin-1-yl)-propoxy]-quinolin-4-yloxy}-phenyl)-benzenesulfonamide] | ≤ 12.5 | ≤ 12.5 | 12.5 to 50 | ≤ 12.5 | ≤ 12.5 | – | –
9 | COc1cc2c(Oc3cccc(NS(=O)(=O)c4ccccc4C(F)(F)F)c3)ccnc2cc1OCCCN1CCN(C)CC1 [Example 102, N-(3-{6-Methoxy-7-[3-(4-methyl-piperazin-1-yl)-propoxy]-quinolin-4-yloxy}-phenyl)-2-trifluoromethyl-benzenesulfonamide] | ≤ 12.5 | ≤ 12.5 | ≤ 12.5 | ≤ 12.5 | ≤ 12.5 | ≤ 12.5 | –
10 | COc1cc2c(Oc3ccc(NS(=O)(=O)c4ccccc4[N+](=O)[O-])cc3F)ccnc2cc1OCCCN1CCN(C)CC1 [Example 21, N-(3-Fluoro-4-{6-methoxy-7-[3-(4-methyl-piperazin-1-yl)-propoxy]-quinolin-4-yloxy}-phenyl)-2-nitro-benzenesulfonamide] | ≤ 12.5 | ≤ 12.5 | 12.5 to 50 | ≤ 12.5 | ≤ 12.5 | ≤ 12.5 | –
11 | COc1cc2c(Oc3ccc(NS(=O)(=O)c4cc(F)ccc4F)cc3F)ccnc2cc1OCCCN1CCCCC1 [Example 1, 2,5-Difluoro-N-{3-fluoro-4-[6-methoxy-7-(3-piperidin-1-yl-propoxy)-quinolin-4-yloxy]-phenyl}-benzenesulfonamide] | 12.5 to 50 | ≤ 12.5 | ≤ 12.5 | ≤ 12.5 | ≤ 12.5 | ≤ 12.5 | –
12 | COc1cc2c(Oc3ccc(NS(=O)(=O)c4cccc(C#N)c4)cc3F)ccnc2cc1OCCCN1CCCC(C)C1 (stereo not shown) [Example 41, 3-Cyano-N-(3-fluoro-4-{6-methoxy-7-[3-(3-methyl-piperidin-1-yl)-propoxy]-quinolin-4-yloxy}-phenyl)-benzenesulfonamide] | ≤ 12.5 | ≤ 12.5 | ≤ 12.5 | ≤ 12.5 | ≤ 12.5 | ≤ 12.5 | –
13 | COc1cc2c(Oc3ccc(NS(=O)(=O)c4ccccc4OC)cc3F)ccnc2cc1OCCCN1CCN(C)CC1 [Example 33, N-(3-Fluoro-4-{6-methoxy-7-[3-(4-methyl-piperazin-1-yl)-propoxy]-quinolin-4-yloxy}-phenyl)-2-methoxy-benzenesulfonamide] | ≤ 12.5 | ≤ 12.5 | ≤ 12.5 | 12.5 to 50 | ≤ 12.5 | 12.5 to 50 | –
14 | COc1cc2c(Oc3ccc(NS(=O)(=O)c4ccccc4C(F)(F)F)cc3F)ccnc2cc1OCCCN(C)C [Example 100, N-{4-[7-(3-Dimethylamino-propoxy)-6-methoxy-quinolin-4-yloxy]-3-fluoro-phenyl}-2-trifluoromethyl-benzenesulfonamide] | ≤ 12.5 | ≤ 12.5 | ≤ 12.5 | ≤ 12.5 | ≤ 12.5 | 12.5 to 50 | –
15 | COc1cc2c(Oc3ccc(NS(=O)(=O)c4cccc(C)c4)cc3F)ccnc2cc1OCCCN1CCCC(C)C1 (stereo not shown) [Example 70, N-(3-Fluoro-4-{6-methoxy-7-[3-(3-methyl-piperidin-1-yl)-propoxy]-quinolin-4-yloxy}-phenyl)-3-methyl-benzenesulfonamide] | ≤ 12.5 | ≤ 12.5 | ≤ 12.5 | ≤ 12.5 | ≤ 12.5 | ≤ 12.5 | –
16 | COc1cc2c(Oc3ccc(NS(=O)(=O)c4ccccc4[N+](=O)[O-])cc3F)ccnc2cc1OCCCN1CCCCC1 [Example 7, N-{3-Fluoro-4-[6-methoxy-7-(3-piperidin-1-yl-propoxy)-quinolin-4-yloxy]-phenyl}-2-nitro-benzenesulfonamide] | ≤ 12.5 | ≤ 12.5 | ≤ 12.5 | ≤ 12.5 | – | 12.5 to 50 | < 0.5
